The record followed here is patent US10213451B2, “Methods and compounds for modulating the secretion or expression of adhesion proteins or angiopoietins of cells” (PACIFIC ARROW LIMITED, priority 2004, dated 2019).

Data set [1] deals with swelling of rats' feet induced by Carrageenin. Nature of the data set: Carrageenin-induced swollen feet model.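 Also: percent increase in foot volume over pre-inflammation volume.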 In kind it is in vivo, SD rats. The following applies: positive control 10.0 mg/kg fed once. The method, then:
SD rats, male, weighing 163±18 g were used in the experiment. The tested animals are allowed to acclimate for a week. The rats drink water freely. The rats were randomly divided into 5 groups: control, positive control and 3 test groups, and each group had 8 rats. The dose for 3 groups of rats are 10, 20 and 40 mg/kg. Indometacin for the positive control is 10 mg/kg and fed once after modeling. The dose of CMC-Na for the control group is the same as each test group and fed into the stomach once a day before modeling for 5 days. The tested drug was fed into the stomach 10 minutes before the animal modeling (1 mL/100 g). The volumes of right foot of each rat were measured 0.5, 1, 2 and 4 hours before and after modeling. The volumes of the right hind feet were measured at a different time, 10 minutes after inflammation induced by subcutaneous injection (with syringe needle 7) of 0.05 mL of the 1% of Carrageenin/normal saline mixture into the feet. The Rate of swelling of the feet was calculated, compared with the controls and subject to a student t-test. Rate of swelling (E) (%)=Ltn−Lt0/Lt0×100% • Ltn: volume of foot after the inflammation • Lt0: volume of foot before the inflammation

Data set [2] deals with Fibronectin secretion from ES2 cells. As to the kind of experiment: Fibronectin secretion (Western blot), ES2 cells. In kind it is cell-based, human. The following applies: for Fibronectin secreted into medium, % of DMSO control: 24 hours. The method, then:
Inhibition of Fibronectin secretion is physiological and the determination of its quantity is based on the following criteria: • 1. Fibronectin is secreted from viable cells. Only cell with over 85% viable cells after drug-treatment are employed in these experiments. The viable cells were determined by MTT assay. • 2. For comparison, the immuno-band intensity from each samples are normalized with cell mass. The cell mass was determined by the MTT assay and is assigned as a MTT unit for each cell sample.
Cells: ES2 cells were grew in T-25 flask with RPMI 1640 medium over night before drug-treatment. Drug-treatment: cells cultures were replaced with fresh RPMI medium with Xanifolia-Y (10 ug/ml final concentration) or DMSO (as control) at 0 hour. At 1, 2, 4, 8 and 24 hour, aliquot of culture medium was taken out for Fibronectin determination. Fibronectin was determined by Western blot with monoclonal antibody (SIGMA) specific to human Fibronectin only.
Drug-treatment: cells cultures were replaced with fresh RPMI medium containing Xanifolia-Y (10 ug/ml final concentration) or DMSO (as control) at 0 hour. At 4 hours (A) or 8 hour (B), culture medium was replaced with fresh culture medium without drug. At 2, 4, 8 and 24 hour, aliquot of culture medium was taken out for Fibronectin determination. Fibronectin (FN) was determined by Western blot with monoclonal antibody (SIGMA) specific only to human Fibronectin.
(§1) Drug-treatment: cells cultures were replaced with fresh RPMI medium containing Xanifolia-Y (10 ug/ml final concentration) or DMSO (as control) at 0 hour. At 2, and 18 hour, aliquot of culture medium was taken out for Fibronectin determination (Western blot method). Cell viability at 18 hours was determined by MTT assay. Cultures were replaced with RPMI medium with MTT and incubated for an hour. The formation of formazan was dissolved in DMSO and OD at 570 nm was measured.
Cells and Drug-treatment: same as previous experiments. After 7 or 24 hours, aliquot of culture medium was taken out for Fibronectin determination (Western blot method). Cell viability at 24 hours was determined by MTT assay.
Cells: ES2 cells were grew in RPMI 1640 medium over night before drug-treatment. Drug-treatment: cells cultures were replaced with fresh RPMI medium containing DMSO (as control) [D]; Xanifolia-Y (10 ug/ml) [Y]; or Paclitaxel 10 or 50 ng/ml [T10, ro T50]. After 24 hours, aliquot of culture medium was taken out for Fibronectin determination (Western blot method). Cell viability at 24 hours was determined by MTT assay.
The amount of Fibronectin secreted by cells into medium was determined by Western blot assay. The amount of Fibronectin secreted per cells basis was determined by dividing the Western-band intensity with the MTT unit.
Western Blot: Spent culture medium (0.6 ml) was mixed with SDS sample buffer (0.2 ml), boiled for 3 minutes before loading to SDS gel. Samples (60 ul/lane) were applied to a 6% SDS gel and electrophoresis was conducted with 100 volts for 2 hours. Protein was transferred to a nitrocellulose paper electrophoretically (30 min at 100 volts). The Western blot was incubated with the first antibody (mouse anti-FN, specific to human FN, SIGMA F0916) and second antibody (Anti-mouse IgG AP conjugated, Promega S3721). The immunobands were developed with BCIP/NBT color development system (Promega S3771).

The test system of data set [3] is Fibronectin secretion from liver HepG2 cells. Nature of the data set: Fibronectin secretion (Western blot), HepG2 cells. Format: cell-based, human. The following applies: HepG2 cells, 10 ug/ml. (In general: In western blotting, separated proteins are transferred to a membrane and probed.)
The test system of the next data set is ES2(ovarian) cells. As to the kind of experiment: MTT assay ES2. Format: cell-based, human. The following applies: for viable cells by MTT units vs DMSO control: 24 hours. The method, then:
MTT Assay. The procedure for MTT assay followed the method described by Carmichael et al. (1987) with modifications. The cells were seeded into a 96-well plate at concentration of 10,000/well for HTB-9, HeLa, H460, HCT116, T98G and OVCAR-3), 15,000/well for DU145, MCF-7, HepG2 and U2OS), and 40,000/well for K562 for 24 hours before drug-treatment. The cells were then exposed to the drugs for 48 hours (72 hours for HepG2 and U2OS, and 96 hours for MCF-7). After the drug-treatment, MTT (0.5 mg/mL) was added to cultures and incubated for an hour. The formazan (product of the reduction of tetrazolium by viable cells) formed and was dissolved with DMSO and the O.D. at 490 nm, and was measured by an ELISA reader. The MTT level of the cells before drug-treatment was also measured (T0). The % cell-growth (% G) is calculated as: % G=(TD−T0/TC−T0)×100(1), where TC or TD represents O.D. readings of control or drug-treated cells. When T0>TD, then the cytotoxicity (LC) expressed as % of the control is calculated as: % LC=(TD−T0/T0)×100(2).
Methods: ES2 cells were exposed to (i) Xanifolia-Y with concentrations of 40, 20, 10, 5, 2.5, and 1.25 ug/ml; or (ii) Paclitaxel with concentrations of […]; or (iii) Combined Xanifolia-Y and Paclitaxel with concentrations of each drug in same order (for example, 40 ug/ml Y plus 10 ng/ml T; 20 ug/ml Y plus 5 ng/ml T, etc. please see FIG. 28). Cells growth under these conditions was determined by the MTT assay.
as §1
A general note: Tetrazolium dyes change colour on reduction, which living cells bring about.

Each structure is given as a SMILES string. Converted amounts (≈) assume the structure as drawn. Read-outs that look alike come from different tables or passages of the source.

As to `COc1ccc2c(c1)c(CC(=O)O)c(C)n2C(=O)c1ccc(Cl)cc1` [Indometacin, reference compound], the “Swelling rate after administration (%)” value in data set [1] (0.5 hour) was found to be 11.8%; in data set [1] (1 hour) it was 14.7%; in data set [1] (2 hours) it was 12.8%; in data set [1] (4 hours), 10.7%.
The inhibition is the percentage by which the read-out fell short of the control. In the case of `C/C=C(/C)C(=O)O[C@H]1[C@H](OC(=O)/C(C)=C\C)[C@@]2(CO)C(CC1(C)C)C1=CCC3[C@@]4(C)CC[C@H](O[C@@H]5OC(C(=O)O)[C@@H](O)C(O)C5O[C@@H]5OC(CO)[C@H](O)C(O)C5O)C(C)(C)C4CC[C@@]3(C)[C@]1(C)[C@@H](O)[C@H]2O` (stereo partly shown) [Xanifolia Y5], in data set [2] (Homo sapiens, ES-2, ES2 cells, 10 ug/ml), the inhibition at 10 µg/mL stood at 68%. Further, the “% inhibition of Fibronectin secretion” value in data set [3] was “have inhibition effect”.
One may read the IC50 as the midpoint of a concentration-inhibition curve. As for `CC(=O)O[C@H]1C(=O)[C@@]2(C)[C@H]([C@H](OC(=O)c3ccccc3)[C@]3(O)C[C@H](OC(=O)[C@H](O)[C@@H](NC(=O)c4ccccc4)c4ccccc4)C(C)=C1C3(C)C)[C@]1(OC(C)=O)CO[C@@H]1C[C@@H]2O` [Paclitaxel, reference compound], the “viable cells by MTT units vs DMSO control” value in the data set on ES2(ovarian) cells (ES2, 10 ng/ml) is 94%; in the data set with ES2(ovarian) cells (ES2, 50 ng/ml), 91%. For the same compound, the IC50 in the data set with ES2(ovarian) cells (ES2 cells, used singly) is 0.00125 µg/mL (≈ 0.00146 µM); with ES2(ovarian) cells (Homo sapiens, ES-2, ES2 cells, combined with Xanifolia-Y, read-out: IC50 value for Paclitaxel when both drugs were used), 0.000625 µg/mL; with ES2(ovarian) cells (Homo sapiens, ES-2, ES2 cells, used singly, read-out: IC50), 0.0015 µg/mL (≈ 0.00176 µM). Besides, the “Fibronectin secreted into medium, % of DMSO control” value in data set [2] (ES2 cells, 10 ng/ml) came to 105%; in data set [2] (ES2 cells, 50 ng/ml) it was 97%. Further, the “inhibition of Fibronectin secretion” value in data set [2] (ES2 cells, 10 to 50 ng/ml) is on record as “no inhibition”.
Compound `CC1(C)CC2C3=CCC4C5(C)CCC(OC6OC(C(=O)O)C(O)C(OC7OCC(O)C(O)C7O)C6OC6OC(CO)C(O)C(O)C6O)C(C)(C)C5CCC4(C)C3(C)CC(O)C2(CO)C(OC(=O)c2ccccc2)C1OC(=O)c1ccccc1` [Ba5, 3-O-[β-D-galactopyranosyl(1→2)]-β-D-xylopyranosyl (1→3)-β-D-glucuronopyranosyl-21-O-benzoyl, 22-O-benzoyl-3β, 15α, 21β, 22α, 28-pentahydroxyolean-12-ene] showed an IC50 with ES2(ovarian) cells (ES2 cells) of 16 µg/mL (≈ 13.7 µM).
`CC=C(C)C(=O)OC1C(OC(=O)c2ccccc2)C(C)(C)CC2C3=CCC4C5(C)CCC(OC6OC(C(=O)O)C(O)C(OC7OCC(O)C(O)C7O)C6OC6OC(CO)C(O)C(O)C6O)C(C)(C)C5CCC4(C)C3(C)CC(O)C21CO` [Ba3, 3-O-[β-D-galactopyranosyl(1→2)]-β-D-xylopyranosyl (1→3)-β-D-glucuronopyranosyl-21-O-benzoyl, 22-O-angeloyl-3β, 15α, 21β, 22α, 28-pentahydroxyolean-12-ene]: the 50% inhibitory concentration (IC50) in the data set with ES2(ovarian) cells (ES2 cells) turned out to be 8 µg/mL (≈ 6.97 µM).
Regarding `CC1(C)CC2C3=CCC4C5(C)CCC(OC6OC(C(=O)O)C(O)C(OC7OCC(O)C(O)C7O)C6OC6OC(CO)C(O)C(O)C6O)C(C)(C)C5CCC4(C)C3(C)CC(O)C2(CO)C(O)C1OC(=O)c1ccccc1` [Ba8, 3-O-[β-D-galactopyranosyl(1→2)]-β-D-xylopyranosyl (1→3)-β-D-glucuronopyranosyl-21-O-benzoyl-3β, 15α, 21β, 22α, 28-pentahydroxyolean-12-ene], in the data set on ES2(ovarian) cells (ES2 cells), the IC50 is 20 µg/mL (≈ 18.8 µM).
Still for that read-out and setting: as for `CC=C(C)C(=O)OC1C(OC(=O)c2ccccc2)C2(CO)C(CC1(C)C)C1=CCC3C4(C)CCC(OC5OC(C(=O)O)C(O)C(OC6OC(CO)C(O)C6O)C5OC5OC(CO)C(O)C(O)C5O)C(C)(C)C4CCC3(C)C1(C)C(O)C2O` [Xanifolia Z4, 3-O-[β-D-galactopyranosyl(1→2)]-α-L-arabinofuranosyl(1→3)-β-D-glucuronopyranosyl-21-O-angeloyl, 22-O-benzoyl-3β, 15α, 16α, 21β, 22α, 28-hexahydroxyolean-12-ene], the figure is 20 µg/mL (≈ 17.2 µM); as for `CC1OC(OC2C(OC3C(OC4C(O)C(C(=O)O)OC(OC5CCC6(C)C(CCC7(C)C6CCC68OC(O)C9(C(O)CC76C)C(OC(=O)C=Cc6ccccc6)C(OC(=O)c6ccccc6)C(C)(C)CC98)C5(C)C)C4OC4OC(CO)C(O)C(O)C4O)OC(CO)C(O)C3O)OC(C)C(O)C2O)C(O)C(O)C1O` (stereo not shown) [Mb4], 15 µg/mL (≈ 9.78 µM); as for `C/C=C(/C)C(=O)O[C@H]1[C@H](OC(=O)c2ccccc2)[C@@]2(CO)C(CC1(C)C)C1=CCC3[C@@]4(C)CC[C@H](O)C(C)(C)C4CC[C@@]3(C)[C@]1(C)[C@@H](O)[C@H]2O` (stereo partly shown) [ACH-Z4], 40 µg/mL (≈ 57.7 µM).
`CC(C)C(=O)OC1C(OC(=O)c2ccccc2)C(C)(C)CC2C3=CCC4C5(C)CCC(OC6OC(C(=O)O)C(O)C(OC7OCC(O)C(O)C7O)C6OC6OC(CO)C(O)C(O)C6O)C(C)(C)C5CCC4(C)C3(C)CC(O)C21CO` [Ba7, 3-O-[β-D-galactopyranosyl(1→2)]-β-D-xylopyranosyl (1→3)-β-D-glucuronopyranosyl-21-O-benzoyl, 22-O-isobutyryl-3β, 15α, 21β, 22α, 28-pentahydroxyolean-12-ene] came in with an IC50 in the data set on ES2(ovarian) cells (ES2 cells) of 11 µg/mL (≈ 9.69 µM).
On to `CC=C(C)C(=O)OC1C(OC(=O)C(C)=CC)C2(CO)C(CC1(C)C)C1=CCC3C4(C)CCC(O)C(C)(CO)C4CCC3(C)C1(C)C(O)C2O` (stereo not shown) [ACH-Y2], for which, in the data set on ES2(ovarian) cells (ES2 cells), the IC50 is 35 µg/mL (≈ 51 µM).
